These results are taken from patent publication US11479551B2, “MTA-cooperative PRMT5 inhibitors” (Mirati Therapeutics, Inc., priority 2019, dated 2022).

Each structure is given as a SMILES string. Read-outs that look alike come from different tables or passages of the source. Bounds are passed on as bounds.

The target in the experiment is PRMT5/MEP50 complex (Homo sapiens (Human), UniProt O14744). Description: PRMT5:MEP50 FlashPlate Assay (histone H4 peptide substrate, plus and minus MTA). It counts as biochemical. As for the experimental part:
The PRMT5 inhibitory activity of compounds of the present invention was determined using either a PRMT5:MEP50 FlashPlate Assay (Reaction Biology Corporation) or a PRMT5:MEP50 HotSpot Assay (Reaction Biology Corporation).
1. PRMT5:MEP50 FlashPlate Assay

Setting [1] is: IC50 + 2 μM MTA (nM), in the presence of 2 μM MTA.
Where [2] appears, read: in the absence of MTA, read-out: IC50.

PRMT5/MEP50 complex, sequence (O14744 2-637): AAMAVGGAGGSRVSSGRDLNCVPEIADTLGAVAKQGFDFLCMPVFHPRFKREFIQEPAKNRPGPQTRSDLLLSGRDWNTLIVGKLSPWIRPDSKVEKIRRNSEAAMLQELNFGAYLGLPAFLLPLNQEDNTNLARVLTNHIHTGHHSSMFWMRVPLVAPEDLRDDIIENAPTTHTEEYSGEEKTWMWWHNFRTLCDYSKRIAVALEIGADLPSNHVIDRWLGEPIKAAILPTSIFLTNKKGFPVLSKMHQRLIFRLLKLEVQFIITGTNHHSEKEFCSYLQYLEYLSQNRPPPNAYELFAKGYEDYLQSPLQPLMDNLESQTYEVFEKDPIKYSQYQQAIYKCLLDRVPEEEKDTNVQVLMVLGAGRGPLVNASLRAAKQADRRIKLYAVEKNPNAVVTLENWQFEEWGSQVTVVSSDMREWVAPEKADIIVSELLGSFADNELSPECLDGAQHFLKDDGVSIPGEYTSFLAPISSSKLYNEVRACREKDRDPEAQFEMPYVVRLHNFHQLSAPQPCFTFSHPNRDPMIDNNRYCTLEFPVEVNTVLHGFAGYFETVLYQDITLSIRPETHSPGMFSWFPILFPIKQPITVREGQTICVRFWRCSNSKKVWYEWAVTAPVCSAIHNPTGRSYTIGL
PRMT5/MEP50 complex, sequence (Q9BQA1 2-342 partner): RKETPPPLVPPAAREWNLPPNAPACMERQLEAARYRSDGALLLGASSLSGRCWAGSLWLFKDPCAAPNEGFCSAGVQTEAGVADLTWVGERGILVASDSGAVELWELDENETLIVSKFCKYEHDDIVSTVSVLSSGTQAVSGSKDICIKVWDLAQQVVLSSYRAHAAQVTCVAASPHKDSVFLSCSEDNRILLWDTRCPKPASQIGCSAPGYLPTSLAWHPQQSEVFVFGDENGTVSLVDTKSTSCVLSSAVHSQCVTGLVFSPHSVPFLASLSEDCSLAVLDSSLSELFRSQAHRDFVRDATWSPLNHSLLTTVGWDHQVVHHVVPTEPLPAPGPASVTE

In general, IC50 refers to the concentration that inhibits the measured activity by half. Regarding `NCc1n[nH]c(=O)c2ccc(-c3cncc(Oc4cccc(F)c4)c3)cc12` [Example 4-65, 4-(aminomethyl)-6-(5-(3-fluorophenoxy)pyridin-3-yl)phthalazin-1(2H)-one], the IC50 runs as follows: under setting [1], 16 nM; under setting [2], 517 nM.

On to `NCc1n[nH]c(=O)c2ccc(-c3cnc4ccccn34)cc12` [Example 4-3, 4-(aminomethyl)-6-(imidazo[1,2-a]pyridin-3-yl)phthalazin-1(2H)-one], for which the IC50 turned out to be 37 nM under setting [1] and 926 nM under setting [2].

For `Cc1ccc(Sc2cncc(-c3ccc4c(=O)[nH]nc(CN)c4c3)c2)cc1` [Example 4-60, 4-(aminomethyl)-6-(5-(p-tolylthio)pyridin-3-yl)phthalazin-1(2H)-one], the IC50 by setting is: under setting [1], 2.3 nM; under setting [2], 117 nM.

Take `Cc1ccc(Oc2cncc(-c3ccc4c(=O)[nH]nc(CN)c4c3)c2)c(C)c1Cl` [Example 4-76, 4-(aminomethyl)-6-(5-(3-chloro-2,4-dimethylphenoxy)pyridin-3-yl)phthalazin-1(2H)-one]: the IC50 is, setting by setting: under setting [1], 1.3 nM; under setting [2], 31 nM.

Regarding `Cc1ccccc1-c1ccc2c(=O)[nH]nc(CN)c2c1` [Example 3-60, 4-(aminomethyl)-6-(o-tolyl)phthalazin-1(2H)-one], the IC50 by setting is: under setting [1], 8100 nM; under setting [2], greater than 100000 nM.

On to `Cn1nc(C(F)(F)F)cc1-c1ccc2c(=O)[nH]nc(CN)c2c1` [Example 3-20, 4-(aminomethyl)-6-(1-methyl-3-(trifluoromethyl)-1H-pyrazol-5-yl)phthalazin-1(2H)-one], for which the IC50 under setting [1] is 53000 nM.

Regarding `Cc1ccccc1Sc1cncc(-c2ccc3c(=O)[nH]nc(CN)c3c2)c1` [Example 4-59, 4-(aminomethyl)-6-(5-(o-tolylthio)pyridin-3-yl)phthalazin-1(2H)-one], the IC50 turned out to be 2.1 nM under setting [1] and 68 nM under setting [2].

On to `CC(=O)N1CCn2ncc(-c3ccc4c(=O)[nH]nc(CN)c4c3)c2C1` [Example 4-84, 6-(5-acetyl-4,5,6,7-tetrahydropyrazolo[1,5-a]pyrazin-3-yl)-4-(aminomethyl)phthalazin-1(2H)-one], for which the IC50 turned out to be 93 nM under setting [1] and 4040 nM under setting [2].

Take `Cc1ccc(Oc2cncc(-c3ccc4c(=O)[nH]nc(CN)c4c3)c2)cc1` [Example 7-5, 4-(aminomethyl)-6-(5-(p-tolyloxy)pyridin-3-yl)phthalazin-1(2H)-one]: the IC50 under setting [1] was 2 nM and the IC50 under setting [2] turned out to be 64 nM.

Take `N#Cc1ccn(-c2cncc(-c3ccc4c(=O)[nH]nc(CN)c4c3)c2)n1` [Example 4-10, 1-(5-(4-(aminomethyl)-1-oxo-1,2-dihydrophthalazin-6-yl)pyridin-3-yl)-1H-pyrazole-3-carbonitrile]: the IC50 runs as follows: under setting [1], 1000 nM; under setting [2], greater than 100000 nM.

On to `COCc1c[nH]c2ncc(-c3ccc4c(=O)[nH]nc(CN)c4c3)cc12` [Example 4-46, 4-(aminomethyl)-6-(3-(methoxymethyl)-1H-pyrrolo[2,3-b]pyridin-5-yl)phthalazin-1(2H)-one], for which the IC50 worked out at 0.6 nM under setting [1] and 329 nM under setting [2].

For `Cc1ncccc1-c1ccc2c(=O)[nH]nc(CN)c2c1` [Example 3-18, 4-(aminomethyl)-6-(2-methylpyridin-3-yl)phthalazin-1(2H)-one], the IC50 runs as follows: under setting [1], 33000 nM; under setting [2], greater than 1e+06 nM.

Consider `N#Cc1ccc(-c2cncc(-c3ccc4c(=O)[nH]nc(CN)c4c3)c2)c(C#N)c1` [Example 8-2, 4-(5-(4-(aminomethyl)-1-oxo-1,2-dihydrophthalazin-6-yl)pyridin-3-yl)isophthalonitrile], for which the IC50 reads like this: under setting [1], 36 nM; under setting [2], 3150 nM.

Consider `Cc1ccc(Oc2cncc(-c3ccc4c(=O)[nH]nc(CN)c4c3)c2)cc1Cl` [Example 4-74, 4-(aminomethyl)-6-(5-(3-chloro-4-methylphenoxy)pyridin-3-yl)phthalazin-1(2H)-one], for which the IC50 runs as follows: under setting [1], 1.1 nM; under setting [2], 76 nM.

`N#Cc1cc(F)ccc1-c1cncc(-c2ccc3c(=O)[nH]nc(CN)c3c2)c1` [Example 8-5, 2-(5-(4-(aminomethyl)-1-oxo-1,2-dihydrophthalazin-6-yl)pyridin-3-yl)-5-fluorobenzonitrile]: the IC50 stood at 23 nM under setting [1] and 691 nM under setting [2].

As to `CN(C)c1cncc(-c2ccc3c(=O)[nH]nc(CN)c3c2)c1` [Example 4-53, 4-(aminomethyl)-6-(5-(dimethylamino)pyridin-3-yl)phthalazin-1(2H)-one], the IC50 worked out at 55 nM under setting [1] and 1140 nM under setting [2].

As to `CCN1CCn2ncc(-c3ccc4c(=O)[nH]nc(CN)c4c3)c2C1` [Example 4-80, 4-(aminomethyl)-6-(5-ethyl-4,5,6,7-tetrahydropyrazolo[1,5-a]pyrazin-3-yl)phthalazin-1(2H)-one], the IC50 runs as follows: under setting [1], 58 nM; under setting [2], 1570 nM.

Take `NCc1n[nH]c(=O)c2ccc(-c3cncc(C(F)(F)F)c3)cc12` [Example 3-43, 4-(aminomethyl)-6-(5-(trifluoromethyl)pyridin-3-yl)phthalazin-1(2H)-one]: the IC50 was found to be 340 nM under setting [1] and 6500 nM under setting [2].

As for `Cc1ccncc1-c1ccc2c(=O)[nH]nc(CN)c2c1` [Example 3-19, 4-(aminomethyl)-6-(4-methylpyridin-3-yl)phthalazin-1(2H)-one], the IC50 was 180 nM under setting [1] and 6360 nM under setting [2].

Take `NCc1n[nH]c(=O)c2ccc(-c3cncc(Sc4ccccc4Cl)c3)cc12` [Example 4-58, 4-(aminomethyl)-6-(5-((2-chlorophenyl)thio)pyridin-3-yl)phthalazin-1(2H)-one]: the IC50 is, setting by setting: under setting [1], 1.8 nM; under setting [2], 36 nM.

Take `NCc1n[nH]c(=O)c2ccc(-c3cncc(OCC4CC4)c3)cc12` [Example 3-53, 4-(aminomethyl)-6-(5-(cyclopropylmethoxy)pyridin-3-yl)phthalazin-1(2H)-one]: the IC50 by setting is: under setting [1], 28 nM; under setting [2], 1350 nM.

For `CC(C)n1cc(-c2ccc3c(=O)[nH]nc(CN)c3c2)cn1` [Example 3-17, 4-(aminomethyl)-6-(1-isopropyl-1H-pyrazol-4-yl)phthalazin-1(2H)-one], the IC50 was found to be 770 nM under setting [1] and 15100 nM under setting [2].

With `NCc1n[nH]c(=O)c2ccc(-c3cncc(C4CC4)c3)cc12` [Example 3-33, 4-(aminomethyl)-6-(5-cyclopropylpyridin-3-yl)phthalazin-1(2H)-one], the IC50 is 61 nM under setting [1] and 1570 nM under setting [2].

As to `NCc1n[nH]c(=O)c2ccc(-c3cccnc3)cc12` [Example 1-5, 4-(aminomethyl)-6-(pyridin-3-yl)phthalazin-1(2H)-one], the IC50 reads like this: under setting [1], 1400 nM; under setting [2], 34800 nM.

With `NCc1n[nH]c(=O)c2ccc(-c3cnn(CCO)c3)cc12` [Example 3-32, 4-(aminomethyl)-6-(1-(2-hydroxyethyl)-1H-pyrazol-4-yl)phthalazin-1(2H)-one], the IC50 by setting is: under setting [2], 11600 nM; (read-out: IC50 + 2 μM MTA, in the presence of 2 μM MTA) 710 nM.

On to `COc1cccc(Oc2cncc(-c3ccc4c(=O)[nH]nc(CN)c4c3)c2)c1` [Example 4-68, 4-(aminomethyl)-6-(5-(3-methoxyphenoxy)pyridin-3-yl)phthalazin-1(2H)-one], for which the IC50 runs as follows: under setting [1], 10 nM; under setting [2], 243 nM.

As for `N#Cc1ccc2ncc(-c3ccc4c(=O)[nH]nc(CN)c4c3)n2c1` [Example 4-15, 3-(4-(aminomethyl)-1-oxo-1,2-dihydrophthalazin-6-yl)imidazo[1,2-a]pyridine-6-carbonitrile], the IC50 is, setting by setting: under setting [1], 260 nM; under setting [2], 3870 nM.

As to `NCc1n[nH]c(=O)c2ccc(-c3nncn3Cc3ccccc3)cc12` [Example 3-57, 4-(aminomethyl)-6-(4-benzyl-4H-1,2,4-triazol-3-yl)phthalazin-1(2H)-one], the IC50 under setting [1] was 30000 nM.

In the case of `Cc1ccn2c(-c3ccc4c(=O)[nH]nc(CN)c4c3)cnc2c1` [Example 4-30, 4-(aminomethyl)-6-(7-methylimidazo[1,2-a]pyridin-3-yl)phthalazin-1(2H)-one], the IC50 reads like this: under setting [1], 400 nM; under setting [2], 4750 nM.

As to `NCc1n[nH]c(=O)c2ccc(-c3cncc(CO)c3)cc12` [Example 3-47, 4-(aminomethyl)-6-(5-(hydroxymethyl)pyridin-3-yl)phthalazin-1(2H)-one], the IC50 was 56 nM under setting [1] and 2950 nM under setting [2].

As to `Cc1ccc2ncc(-c3ccc4c(=O)[nH]nc(CN)c4c3)n2c1` [Example 4-20, 4-(aminomethyl)-6-(6-methylimidazo[1,2-a]pyridin-3-yl)phthalazin-1(2H)-one], the IC50 was found to be 47 nM under setting [1] and 1020 nM under setting [2].

For the molecule `Cn1cc(-c2ccc3c(=O)[nH]nc(CN)c3c2)c2cccnc21` [Example 3-29, 4-(aminomethyl)-6-(1-methyl-1H-pyrrolo[2,3-b]pyridin-3-yl)phthalazin-1(2H)-one], the IC50 under setting [1] turned out to be 10000 nM.

As to `NCc1n[nH]c(=O)c2ccc(-c3cncc(Sc4ccc(Cl)cc4)c3)cc12` [Example 4-57, 4-(aminomethyl)-6-(5-((4-chlorophenyl)thio)pyridin-3-yl)phthalazin-1(2H)-one], the IC50 reads like this: under setting [1], 11 nM; under setting [2], 85 nM.

As for `Cc1cn2c(-c3ccc4c(=O)[nH]nc(CN)c4c3)cnc2cn1` [Example 4-24, 4-(aminomethyl)-6-(6-methylimidazo[1,2-a]pyrazin-3-yl)phthalazin-1(2H)-one], the IC50 stood at 840 nM under setting [1] and 13400 nM under setting [2].

Consider `Cn1ncc(-c2ccc3c(=O)[nH]nc(CN)c3c2)c1Cl` [Example 4-49, 4-(aminomethyl)-6-(5-chloro-1-methyl-pyrazol-4-yl)-2H-phthalazin-1-one], for which the IC50 was found to be 300 nM under setting [1] and 5930 nM under setting [2].

As to `NCc1n[nH]c(=O)c2ccc(-c3cnco3)cc12` [Example 3-28, 4-(aminomethyl)-6-(oxazol-5-yl)phthalazin-1(2H)-one], the IC50 under setting [1] was greater than 100000 nM and the IC50 under setting [2] was greater than 100000 nM.
